Measurements as given in patent US4608373A, “Cephem compounds” (Yamanouchi Pharmaceutical Co., Ltd., priority 1982, dated 1986).
In brackets after ≈: the same amount, converted by molar mass. Counter-ions that a name gives are not always drawn.

Assays:
Format in all cases: cell-based
[1] = system: Staph. aureus Smith; experiment: Antibacterial activity (MIC), Staph. aureus Smith; settings: Staphylococcus aureus, read-out: MIC (minimum effective inhibitory concentration)
Description: (§1) Antibacterial activities (minimum effective inhibitory concentrations) of the compounds of formula I are shown in the following table in comparison with those of cefatazidime having the structure [drawing 5] and cefmenoxime having the structure [drawing 6]

[2] = system: Ent. cloacae V-8; experiment: Antibacterial activity (MIC), Ent. cloacae V-8; settings: Enterobacter cloacae, V8, read-out: MIC (minimum effective inhibitory concentration)
Description: as §1

[3] = system: E. coli Ebara; experiment: Antibacterial activity (MIC), E. coli Ebara; settings: Escherichia coli; E. coli Ebara; read-out: MIC (minimum effective inhibitory concentration)
Description: as §1

[4] = system: Ps. aeruginosa IID 5142; experiment: Antibacterial activity (MIC), Ps. aeruginosa IID 5142; settings: Pseudomonas aeruginosa, IID5142, read-out: MIC (minimum effective inhibitory concentration)
Description: as §1

[5] = system: Serr. marcescens IID 620; experiment: Antibacterial activity (MIC), Serr. marcescens IID 620; settings: Serratia marcescens, IID620; Serr. marcescens IID 620; read-out: MIC (minimum effective inhibitory concentration)
Description: as §1

[6] = system: Ent. aerogenes ATCC 13048 (MS-1); experiment: Antibacterial activity (MIC), Ent. aerogenes ATCC 13048 (MS-1); settings: Klebsiella aerogenes, ATCC13048, read-out: MIC (minimum effective inhibitory concentration)
Description: as §1

[7] = system: Staph. aureus ATCC 6538P; experiment: Antibacterial activity (MIC), Staph. aureus ATCC 6538P; settings: Staphylococcus aureus, ATCC6538P, read-out: MIC (minimum effective inhibitory concentration)
Description: as §1

[8] = system: Kleb. pneumoniae ATCC 10031; experiment: Antibacterial activity (MIC), Kleb. pneumoniae ATCC 10031; settings: Klebsiella pneumoniae, ATCC10031, read-out: MIC (minimum effective inhibitory concentration)
Description: as §1

[9] = system: Staph. aureus Terashima; experiment: Antibacterial activity (MIC), Staph. aureus Terashima; settings: Staphylococcus aureus, read-out: MIC (minimum effective inhibitory concentration)
Description: as §1

[10] = system: Ps. aeruginosa NCTC 10490; experiment: Antibacterial activity (MIC), Ps. aeruginosa NCTC 10490; settings: Pseudomonas aeruginosa, NCTC10490, read-out: MIC (minimum effective inhibitory concentration)
Description: as §1

[11] = system: Proteus morgani IID 602; experiment: Antibacterial activity (MIC), Proteus morgani IID 602; settings: Proteus morgani IID 602; read-out: MIC (minimum effective inhibitory concentration)
Description: as §1

| SMILES | MIC [1] | MIC [2] | MIC [3] | MIC [4] | MIC [5] | MIC [6] | MIC [7] | MIC [8] | MIC [9] | MIC [10] | MIC [11] |
| --- | --- | --- | --- | --- | --- | --- | --- | --- | --- | --- | --- |
| Nc1nc(CO/N=C(\C(=O)NC2C(=O)N3C(C(=O)[O-])=C(C[n+]4cccc(S(=O)(=O)O)c4)CSC23)c2csc(N)n2)cs1 (stereo not drawn) [Example 17, (Z)-7-{α-(2-amino-4-thiazolyl)-α-[(2-amino-4-thiazolyl)methoxyimino]acetamido}-3-(3-sulfonate-1-pyridiniomethyl)-3-cephem-4-carboxylate mono-sodium salt] | 6.25 µg/mL | 6.25 µg/mL | 12.5 µg/mL | 25 µg/mL | 0.39 µg/mL | 3.13 µg/mL | 6.25 µg/mL | 0.39 µg/mL | 12.5 µg/mL | 1.56 µg/mL | 1.56 µg/mL |
| Nc1nc(CO/N=C(\C(=O)NC2C(=O)N3C(C(=O)[O-])=C(C[n+]4cccc(NC=O)c4)CS[C@H]23)c2csc(N)n2)cs1 (stereo partly drawn) [Example 18, (Z)-7-{α-(2-amino-4-thiazolyl)-α-[(2-amino-4-thiazolyl)methoxyimino]acetamido}-3-(3-formamido-1-pyridiniomethyl)-3-cephem-4-carboxylate] | 0.78 µg/mL (≈ 1.27 µM) | 3.13 µg/mL (≈ 5.08 µM) | 0.78 µg/mL (≈ 1.27 µM) | 6.25 µg/mL (≈ 10.2 µM) | 0.39 µg/mL (≈ 0.633 µM) | 1.56 µg/mL (≈ 2.53 µM) | 0.78 µg/mL (≈ 1.27 µM) | ≤ 0.2 µg/mL | 1.56 µg/mL (≈ 2.53 µM) | 0.39 µg/mL (≈ 0.633 µM) | 0.78 µg/mL (≈ 1.27 µM) |
| Nc1ccc[n+](CC2=C(C(=O)[O-])N3C(=O)C(NC(=O)/C(=N\OCc4csc(N)n4)c4csc(N)n4)[C@H]3SC2)c1 (stereo partly drawn) [Example 19, (Z)-7-{α-(2-amino-4-thiazolyl)-α-[(2-amino-4-thiazolyl)methoxyimino]acetamido}-3-(3-amino-1-pyridiniomethyl)-3-cephem-4-carboxylate] | 0.78 µg/mL (≈ 1.33 µM) | 3.13 µg/mL (≈ 5.33 µM) | 0.39 µg/mL (≈ 0.664 µM) | 6.25 µg/mL (≈ 10.6 µM) | ≤ 0.2 µg/mL | 1.56 µg/mL (≈ 2.65 µM) | 0.78 µg/mL (≈ 1.33 µM) | ≤ 0.2 µg/mL | 0.78 µg/mL (≈ 1.33 µM) | 0.78 µg/mL (≈ 1.33 µM) | 0.78 µg/mL (≈ 1.33 µM) |
| Nc1nc(CO/N=C(\C(=O)NC2C(=O)N3C(C(=O)[O-])=C(C[n+]4cccc(C(=O)NCC(=O)O)c4)CSC23)c2csc(N)n2)cs1 (stereo not drawn) [Example 20, (Z)-7-{α-(2-amino-4-thiazolyl)-α-[(2-amino-4-thiazolyl)methoxyimino]acetamido}-3-{3-[N-(carboxylatemethyl)carbamoyl]-1-pyridiniomethyl}-3-cephem-4-carboxylate mono-sodium salt] | 6.25 µg/mL | 12.5 µg/mL | 6.25 µg/mL | 25 µg/mL | ≤ 0.2 µg/mL | 3.13 µg/mL | 6.25 µg/mL | 0.39 µg/mL | 12.5 µg/mL | 1.56 µg/mL | 1.56 µg/mL |
| Nc1cc[n+](CC2=C(C(=O)[O-])N3C(=O)C(NC(=O)/C(=N\OCc4csc(N)n4)c4csc(N)n4)[C@H]3SC2)cc1 (stereo partly drawn) [Example 21, 7-{α-(2-amino-4-thiazolyl)-α-[(2-amino-4-thiazolyl)methoxyimino]acetamido}-3-(4-amino-1-pyridiniomethyl)-3-cephem-4-carboxylate] | 0.39 µg/mL (≈ 0.664 µM) | 1.56 µg/mL (≈ 2.65 µM) | ≤ 0.2 µg/mL | 6.25 µg/mL (≈ 10.6 µM) | ≤ 0.2 µg/mL | 0.78 µg/mL (≈ 1.33 µM) | 0.39 µg/mL (≈ 0.664 µM) | ≤ 0.2 µg/mL | 0.39 µg/mL (≈ 0.664 µM) | 0.39 µg/mL (≈ 0.664 µM) | 0.39 µg/mL (≈ 0.664 µM) |
| Nc1nc(CO/N=C(\C(=O)NC2C(=O)N3C(C(=O)[O-])=C(C[n+]4cccc(CNC=O)c4)CS[C@H]23)c2csc(N)n2)cs1 (stereo partly drawn) [Example 22, (Z)-7-{α-(2-amino-4-thiazolyl)-α-[(2-amino-4-thiazolyl)methoxyimino]acetamido}-3-(3-formamidomethyl-1-pyridiniomethyl)-3-cephem-4-carboxylate] | 1.56 µg/mL (≈ 2.48 µM) | 6.25 µg/mL (≈ 9.93 µM) | 1.56 µg/mL (≈ 2.48 µM) | 12.5 µg/mL (≈ 19.9 µM) | 0.78 µg/mL (≈ 1.24 µM) | 3.13 µg/mL (≈ 4.97 µM) | 1.56 µg/mL (≈ 2.48 µM) | ≤ 0.2 µg/mL | 3.13 µg/mL (≈ 4.97 µM) | 1.56 µg/mL (≈ 2.48 µM) | 1.56 µg/mL (≈ 2.48 µM) |
| Nc1nc(CON=C(C(=O)NC2C(=O)N3C(C(=O)[O-])=C(C[n+]4ccc(C(=O)NO)cc4)CS[C@H]23)c2csc(N)n2)cs1 (stereo partly drawn) [Example 23, (Z)-7-{α-(2-amino-4-thiazolyl)-α-[(2-amino-4-thiazolyl)methoxyimino]acetamido}-3-(4-hydroxycarbamoyl-1-pyridiniomethyl)-3-cephem-4-carboxylate] | 6.25 µg/mL (≈ 9.89 µM) | 3.13 µg/mL (≈ 4.96 µM) | 0.39 µg/mL (≈ 0.617 µM) | 6.25 µg/mL (≈ 9.89 µM) | 0.39 µg/mL (≈ 0.617 µM) | 1.56 µg/mL (≈ 2.47 µM) | 3.13 µg/mL (≈ 4.96 µM) | ≤ 0.2 µg/mL | 3.13 µg/mL (≈ 4.96 µM) | 0.39 µg/mL (≈ 0.617 µM) | 0.78 µg/mL (≈ 1.23 µM) |
